Results: US20110319362A1, “STAT3 LIGANDS AND THERAPEUTIC USES THEREOF” (priority 2008, published 2011)
Where two headings read alike, the source gives them in different places. Values belong to the molecule of their own block, whether it stands above or below them. Where a SMILES comes first, the peptide text is derived from it. [ ]: non-standard residue; d: D form. The star is where a group is joined. 5FAM = O=C1OC2(c3ccc(O)cc3Oc3cc(O)ccc32)c2ccc(C(=O)*)cc21; pY = N[C@@H](Cc1ccc(OP(=O)(O)O)cc1)C(=O)O; βAla = NCCC(=O)O

Tests used:
[1] = tested on: MDA-MB-468 cancer cell line; assay: Cell growth assay (WST-8); assay type: cell-based; details: Homo sapiens, MDA-MB-468, 96 h, WST-8, 4 days
Description: (§1) The effect of STAT3 compounds on cell growth was evaluated by a WST-8 [2-(2-methoxy-4-nitrophenyl)-3-(4-nitrophenyl)-5-(2,4-disulfophenyl)-2H-tetrazolium, monosodium salt assay (Dojindo Molecular Technologies, Inc). Cells (3000-4000 cells in each well) were cultured in 96-well tissue culture plates in medium (200 μL) containing various concentrations of STAT3 compounds for 4 days. At the end of incubation, WST-8 dye (20 μL) was added to each well and incubated for an additional 1-3 h, and then the absorbance was measured in a microplate reader (Molecular Devices) at 450 nm. Cell growth inhibition was evaluated as the ratio of the absorbance of the sample to that of the control.

[2] = target: T1, STAT3 protein (Homo sapiens, UniProt P40763); assay: In vitro competitive STAT3 binding assay (fluorescence polarization)
T1 construct: human STAT3 protein (residues 122-722) fused to His-tag; His-tag
T1 sequence (P40763 122-722): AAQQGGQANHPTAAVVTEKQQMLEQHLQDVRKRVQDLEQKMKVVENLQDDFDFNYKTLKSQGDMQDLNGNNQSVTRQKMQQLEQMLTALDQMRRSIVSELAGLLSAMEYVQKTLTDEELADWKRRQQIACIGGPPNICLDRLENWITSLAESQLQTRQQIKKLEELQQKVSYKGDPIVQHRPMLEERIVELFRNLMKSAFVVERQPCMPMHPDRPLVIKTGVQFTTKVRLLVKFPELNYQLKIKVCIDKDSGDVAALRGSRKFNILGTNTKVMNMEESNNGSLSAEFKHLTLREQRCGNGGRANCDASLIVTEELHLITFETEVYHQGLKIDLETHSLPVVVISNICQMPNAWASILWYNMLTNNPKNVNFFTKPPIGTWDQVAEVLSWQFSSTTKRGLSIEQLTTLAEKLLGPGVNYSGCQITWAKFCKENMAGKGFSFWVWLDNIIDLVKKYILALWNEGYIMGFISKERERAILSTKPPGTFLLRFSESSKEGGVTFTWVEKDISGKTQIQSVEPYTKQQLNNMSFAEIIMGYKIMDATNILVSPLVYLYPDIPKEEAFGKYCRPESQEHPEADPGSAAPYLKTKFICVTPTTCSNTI
Description: To quantitatively determine the binding affinities of STAT3 inhibitors to STAT3 protein, a sensitive and quantitative in vitro binding assay was developed based upon fluorescence polarization (FP) method. For this FP assay, 5-carboxyfluorescein (5-Fam) was coupled to a phosphopeptide (phospho-Tyr-Leu-Pro-Gln-Thr-Val-amide) with two beta-alanine and one glycine residues as the spacer between 5-Fam and the phosphopeptide to obtain 5-Fam-beta-Ala-beta-Ala-Gly-phospho-Tyr-Leu-Pro-Gln-Thr-Val-amide as the fluorescently tagged tracer, which was named as STT2 peptide. […] The recombinant human STAT3 protein (residues 122-722) fused to His-tag was stable and soluble.
Competitive binding experiments were carried out using 150 nM of STAT3 protein and 5 nM of STT2 peptide with different concentrations of a tested STAT3 inhibitor. For each experiment, two controls were included. One control contained STAT3 protein and STT2 peptide, and the second control contained STT2 peptide only. The polarization values were measured after 2-3 hours of incubation using an ULTRA READER (Tecan U.S. Inc., Research Triangle Park, N.C.). IC50 values, the inhibitor concentration at which 50% of the fluorescently tagged STT2 peptide is displaced by STAT3 inhibitors, was determined from a plot using nonlinear least-squares analysis using GRAPHPAD PRISM software (GraphPad Software, Inc., San Diego, Calif.). […]

[3] = tested on: MDA-MB-231 cancer cell line; assay: Cell growth assay (WST-8); assay type: cell-based; details: Homo sapiens, MDA-MB-231, 96 h; WST-8, 4 days; read-out: Inhibition of cell growth IC50, MDA-MB-231 cancer cell line
Description: as §1

[4] = Table 2 prints no column heads, columns and unit as in Table 1, read-out: Inhibition of cell growth IC50, MDA-MB-468 cancer cell line (pro-drugs, Table 2)
[5] = FP competitive binding, fluorescently tagged STT2 peptide tracer, read-out: Binding affinities to STAT3 IC50
[6] = read-out: Inhibition of cell growth IC50, MDA-MB-468 cancer cell line

- IC50 [1, 4]: > 100 µM
Structure (SMILES): CCCCCCCCCCCCCCCCOP(=O)(O)C(F)(F)c1ccc2cc(C(=O)N[C@H]3CCCC[C@H]4CC[C@@H](C(=O)NCCc5cn[nH]c5)N4C3=O)[nH]c2c1

Structure (SMILES): CCCCCCCCCCCCCCCCOP(=O)(O)C(F)(F)c1ccc2cc(C(=O)N[C@H]3CCCC[C@H]4CC[C@@H](C(=O)NC(CCC(N)=O)C(=O)NCc5ccccc5)N4C3=O)[nH]c2c1 (stereo partly shown)
- IC50 [1, 4]: > 50 µM

Structure (SMILES): CC(=O)N[C@@H](Cc1ccc(OCP(=O)(O)O)cc1)C(=O)N[C@H]1CCCCC2CC[C@@H](C(=O)N[C@@H](CCC(N)=O)C(=O)NCc3ccccc3)N2C1=O (stereo in doubt) [Example 31]
- IC50 [2]: < 10 µM
- IC50 [3]: > 100 µM

Structure (SMILES): CCOP(=O)(O)CCCCCC(=O)N[C@H]1CCCC[C@H]2CC[C@@H](C(=O)N[C@@H](CCC(N)=O)C(=O)NCc3ccccc3)N2C1=O [Example 23]
- IC50 [2, 5]: > 100 µM
- IC50 [3]: > 100 µM

Structure (SMILES): CC(=O)N[C@@H](Cc1ccc(CP(=O)(O)O)cc1)C(=O)N[C@H]1CCCC[C@H]2CC[C@@H](C(=O)N[C@@H](Cc3c[nH]cn3)C(=O)NCc3ccccc3)N2C1=O [Example 27]
- IC50 [2]: > 10 µM
- IC50 [3]: > 100 µM

Structure (SMILES): CN(C)[C@@H](Cc1ccc(CP(=O)(O)O)cc1)C(=O)N[C@H]1CCCC[C@H]2CC[C@@H](C(=O)N[C@@H](Cc3c[nH]cn3)C(=O)NCc3ccccc3)N2C1=O [Example 28]
- IC50 [2, 5]: > 10 µM
- IC50 [1, 6]: > 100 µM

Structure (SMILES): NC(=O)CC[C@H](NC(=O)[C@@H]1CCC2CCCC[C@H](NC(=O)c3cc4cc(C(F)(F)P(=O)(O)O)ccc4[nH]3)C(=O)N21)C(=O)NCc1ccccc1 (stereo partly shown) [Example 59]
- IC50 [2]: < 1 µM
- IC50 [1, 6]: > 100 µM

- IC50 [2, 5]: < 5 µM
- IC50 [1, 6]: > 100 µM
Structure (SMILES): Cn1c(C(=O)N[C@H]2CCCCC3CC[C@@H](C(=O)NC(CCC(N)=O)C(=O)NCc4ccccc4)N3C2=O)cc2cc(C(F)(F)P(=O)(O)O)ccc21 (stereo partly shown) [Example 61]

Structure (SMILES): CCOP(=O)(OCC)C(F)(F)c1ccc2c(c1)cc(C(=O)N[C@H]1CCCCC3CC[C@@H](C(=O)NC(CCC(N)=O)C(=O)NCc4ccccc4)N3C1=O)n2C (stereo partly shown) [Example 62]
- IC50 [1, 4]: > 100 µM

- IC50 [1, 4]: < 50 µM
Structure (SMILES): CC(C)(C)C(=O)OCOP(=O)(OCOC(=O)C(C)(C)C)C(F)(F)c1ccc2[nH]c(C(=O)N[C@H]3CCCCC4CC[C@@H](C(=O)NCCc5cn[nH]c5)N4C3=O)cc2c1 (stereo partly shown) [Example 63]

Structure (SMILES): CC(C)(C)C(=O)OCOP(=O)(OCOC(=O)C(C)(C)C)C(F)(F)c1ccc2[nH]c(C(=O)N[C@H]3CCCCC4CC[C@@H](C(=O)NC(CCC(N)=O)C(=O)NCc5ccccc5)N4C3=O)cc2c1 (stereo partly shown) [Example 64]
- IC50 [1, 4]: > 100 µM

Structure (SMILES): NC(=O)CCC(NC(=O)[C@@H]1CCC2CCCC[C@H](NC(=O)c3cc4cc(C(F)(F)P(=O)(O)O)ccc4o3)C(=O)N21)C(=O)NCc1ccccc1 (stereo partly shown) [Example 65]
- IC50 [2, 5]: > 10 µM
- IC50 [1, 6]: > 100 µM

Structure (SMILES): CCCCCCCCCCCCCCCCNC(=O)C(CCC(N)=O)NC(=O)[C@@H]1CCC2CCCC[C@H](NC(=O)c3cc4cc(C(F)(F)P(=O)(O)O)ccc4[nH]3)C(=O)N21 (stereo partly shown) [Example 66]
- IC50 [2]: < 1 µM
- IC50 [1, 6]: > 100 µM

Structure (SMILES): CCCCCCCCCCCCCCCCNC(=O)C(CCC(N)=O)NC(=O)[C@@H]1CCC2CCCC[C@H](NC(=O)c3cc4cc(C(F)(F)P(=O)(OCOC(=O)C(C)(C)C)OCOC(=O)C(C)(C)C)ccc4[nH]3)C(=O)N21 (stereo partly shown) [Example 67]
- IC50 [1, 4]: > 100 µM

Structure (SMILES): CC(C)OC(=O)OCOP(=O)(OCOC(=O)OC(C)C)C(F)(F)c1ccc2[nH]c(C(=O)N[C@H]3CCCCC4CC[C@@H](C(=O)NC(CCC(N)=O)C(=O)NCc5ccccc5)N4C3=O)cc2c1 (stereo partly shown) [Example 68]
- IC50 [1, 4]: > 100 µM

- IC50 [1, 4]: > 100 µM
Structure (SMILES): CC(C)OC(=O)OCOP(=O)(OCOC(=O)OC(C)C)C(F)(F)c1ccc2[nH]c(C(=O)N[C@H]3CCCCC4CC[C@@H](C(=O)NCCc5cn[nH]c5)N4C3=O)cc2c1 (stereo partly shown) [Example 69]

Structure (SMILES): CC(C)C[C@H](NC(=O)[C@H](Cc1ccc(OP(=O)(O)O)cc1)NC(=O)CNC(=O)CCNC(=O)CCNC(=O)c1ccc2c(c1)C(=O)OC21c2ccc(O)cc2Oc2cc(O)ccc21)C(=O)N1CCC[C@H]1C(=O)N[C@@H](CCC(N)=O)C(=O)N[C@H](C(=O)N[C@H](C(N)=O)C(C)C)[C@@H](C)O [STT2 peptide, 5-Fam-beta-Ala-beta-Ala-Gly-phospho-Tyr-Leu-Pro-Gln-Thr-Val-amide, reference compound] ({5FAM-βAla-βAla}-G[pY]LPQTV-NH2)
- Kd [2]: 0.047 µM
